Assay results as given in patent publication US12310980B2, “Synthesis of a potent aromatase inhibitor 17α-acetoxy-10β,11β-dihydroxy-progesterone for the treatment of ER+ breast cancer” (priority 2023, dated 2025).
Where two headings read alike, the source gives them in different places.

Tests used:
ovulation = conditions: oral dosage of 10 mg/day in combination with 50 μg/day ethinylestradiol; cited from earlier work
human aromatase = biological target: T1, human aromatase (Homo sapiens, UniProt P11511); assay: UPLC-based aromatase inhibition assay; assay type: biochemical
T1 construct: containing protein (2 mg) from human placental microsomes; from tissue; host or cells: human placenta (microsomes)
T1 sequence (P11511 1-503): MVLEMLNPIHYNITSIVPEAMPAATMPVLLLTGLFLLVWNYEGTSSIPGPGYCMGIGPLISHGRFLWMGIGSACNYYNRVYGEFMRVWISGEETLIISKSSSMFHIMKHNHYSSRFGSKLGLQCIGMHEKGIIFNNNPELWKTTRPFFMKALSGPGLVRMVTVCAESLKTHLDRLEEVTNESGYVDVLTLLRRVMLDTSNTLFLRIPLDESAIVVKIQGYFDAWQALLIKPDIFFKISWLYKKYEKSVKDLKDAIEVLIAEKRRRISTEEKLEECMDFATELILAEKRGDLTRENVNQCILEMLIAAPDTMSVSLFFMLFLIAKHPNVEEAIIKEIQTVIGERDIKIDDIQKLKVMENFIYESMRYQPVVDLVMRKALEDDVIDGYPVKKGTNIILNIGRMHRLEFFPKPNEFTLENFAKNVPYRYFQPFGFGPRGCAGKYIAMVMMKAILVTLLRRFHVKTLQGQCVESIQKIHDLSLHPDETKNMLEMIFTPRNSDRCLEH

[1] = test system: human fibroblast cell line; assay: cytotoxicity against human fibroblast cell line

Row | SMILES | inhibition of ovulation (ovulation) | IC50 (human aromatase; in vitro, human placental microsomes, testosterone substrate, read-out: aromatase inhibition IC50) [nM] | cytotoxicity [1] | IC50 (human aromatase) [nM]
1 | CC(=O)O[C@]1(C(C)=O)CC[C@H]2[C@@H]3CCC4=CC(=O)CC[C@@H]4[C@H]3CC[C@@]21C [Compound 1, 17α-acetoxy-19-nor-progesterone] | inhibit ovulation | 740 ± 24.1 |  | 
2 | CC(=O)O[C@]1(C(C)=O)CC[C@H]2[C@@H]3CCC4=CC(=O)CC[C@]4(O)[C@H]3[C@@H](O)C[C@@]21C [Compound 2, 17α-Acetoxy-10β,11β-dihydroxy-progesterone] |  |  | non-cytotoxic | 827 ± 66
